This passage reports IC50 results from ChEMBL document CHEMBL1147704, “Design and synthesis of 7H-pyrrolo[2,3-d]pyrimidines as focal adhesion kinase inhibitors. Part 2” (Bioorg Med Chem Lett, 2006).

The experiment deals with Focal adhesion kinase 1 (Homo sapiens, UniProt Q05397).

The structures appear in SMILES notation.

Focal adhesion kinase 1, sequence (Q05397 whole entry): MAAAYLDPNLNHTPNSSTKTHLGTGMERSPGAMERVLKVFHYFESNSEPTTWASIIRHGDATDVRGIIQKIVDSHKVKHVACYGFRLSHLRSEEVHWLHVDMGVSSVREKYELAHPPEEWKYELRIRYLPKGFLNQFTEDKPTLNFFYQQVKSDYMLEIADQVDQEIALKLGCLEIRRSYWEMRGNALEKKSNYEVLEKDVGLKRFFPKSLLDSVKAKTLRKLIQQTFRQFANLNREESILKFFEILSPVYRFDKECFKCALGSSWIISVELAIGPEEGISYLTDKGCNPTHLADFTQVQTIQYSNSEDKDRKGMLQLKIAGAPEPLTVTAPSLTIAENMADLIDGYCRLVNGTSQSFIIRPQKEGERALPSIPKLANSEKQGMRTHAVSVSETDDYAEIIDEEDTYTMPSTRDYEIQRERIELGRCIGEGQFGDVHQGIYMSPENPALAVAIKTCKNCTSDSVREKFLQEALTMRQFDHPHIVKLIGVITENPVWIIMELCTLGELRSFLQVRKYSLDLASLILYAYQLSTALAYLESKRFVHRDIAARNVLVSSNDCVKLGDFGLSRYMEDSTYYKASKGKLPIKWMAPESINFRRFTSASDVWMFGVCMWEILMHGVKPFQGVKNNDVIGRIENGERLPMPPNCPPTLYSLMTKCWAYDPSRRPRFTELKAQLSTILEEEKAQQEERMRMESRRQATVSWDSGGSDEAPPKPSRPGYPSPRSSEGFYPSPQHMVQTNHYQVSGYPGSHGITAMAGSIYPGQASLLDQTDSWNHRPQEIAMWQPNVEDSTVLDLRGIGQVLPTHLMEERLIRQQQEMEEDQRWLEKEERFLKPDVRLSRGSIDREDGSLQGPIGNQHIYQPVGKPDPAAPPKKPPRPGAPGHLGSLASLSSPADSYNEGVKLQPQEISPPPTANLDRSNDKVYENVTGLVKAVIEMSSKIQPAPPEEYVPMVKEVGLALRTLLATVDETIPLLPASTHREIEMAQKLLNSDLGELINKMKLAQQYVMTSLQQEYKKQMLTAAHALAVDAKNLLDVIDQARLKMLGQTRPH

`COc1cc(Nc2ncc3ccn(-c4ccccn4)c3n2)cc(OC)c1OC` came in with an IC50 of 212 nM.
To `COc1cc(Nc2ncc3ccn(-c4cccc(CCC(=O)O)n4)c3n2)cc(OC)c1OC` belongs 4 nM.

A word on the IC50: it is the concentration that gives 50% inhibition. A low value points to inhibition by little substance.
